Laboratory results as given in US7928107B2, “Quinazolines useful as modulators of ion channels” (Vertex Pharmaceuticals Incorporated, priority 2004, dated 2011).

Molecular target: NaV 1.8 channel (Homo sapiens, UniProt Q9Y5Y9)
Assay: Activity against NaV 1.8 channel (optical membrane potential assay)
Assay type: cell-based
Outline: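 Cells expressing the NaV of interest loaded with CC2-DMPE (30 min, room temperature) then DiSBAC2(3) with ABSCl and veratridine; compound incubated 20–30 min. Depolarization triggered by sodium add-back and read on VIPR as 460/580 nm FRET ratio (Rf/Ri), normalized to tetracaine and untreated controls.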

Sequence of NaV 1.8 channel (Q9Y5Y9 whole entry): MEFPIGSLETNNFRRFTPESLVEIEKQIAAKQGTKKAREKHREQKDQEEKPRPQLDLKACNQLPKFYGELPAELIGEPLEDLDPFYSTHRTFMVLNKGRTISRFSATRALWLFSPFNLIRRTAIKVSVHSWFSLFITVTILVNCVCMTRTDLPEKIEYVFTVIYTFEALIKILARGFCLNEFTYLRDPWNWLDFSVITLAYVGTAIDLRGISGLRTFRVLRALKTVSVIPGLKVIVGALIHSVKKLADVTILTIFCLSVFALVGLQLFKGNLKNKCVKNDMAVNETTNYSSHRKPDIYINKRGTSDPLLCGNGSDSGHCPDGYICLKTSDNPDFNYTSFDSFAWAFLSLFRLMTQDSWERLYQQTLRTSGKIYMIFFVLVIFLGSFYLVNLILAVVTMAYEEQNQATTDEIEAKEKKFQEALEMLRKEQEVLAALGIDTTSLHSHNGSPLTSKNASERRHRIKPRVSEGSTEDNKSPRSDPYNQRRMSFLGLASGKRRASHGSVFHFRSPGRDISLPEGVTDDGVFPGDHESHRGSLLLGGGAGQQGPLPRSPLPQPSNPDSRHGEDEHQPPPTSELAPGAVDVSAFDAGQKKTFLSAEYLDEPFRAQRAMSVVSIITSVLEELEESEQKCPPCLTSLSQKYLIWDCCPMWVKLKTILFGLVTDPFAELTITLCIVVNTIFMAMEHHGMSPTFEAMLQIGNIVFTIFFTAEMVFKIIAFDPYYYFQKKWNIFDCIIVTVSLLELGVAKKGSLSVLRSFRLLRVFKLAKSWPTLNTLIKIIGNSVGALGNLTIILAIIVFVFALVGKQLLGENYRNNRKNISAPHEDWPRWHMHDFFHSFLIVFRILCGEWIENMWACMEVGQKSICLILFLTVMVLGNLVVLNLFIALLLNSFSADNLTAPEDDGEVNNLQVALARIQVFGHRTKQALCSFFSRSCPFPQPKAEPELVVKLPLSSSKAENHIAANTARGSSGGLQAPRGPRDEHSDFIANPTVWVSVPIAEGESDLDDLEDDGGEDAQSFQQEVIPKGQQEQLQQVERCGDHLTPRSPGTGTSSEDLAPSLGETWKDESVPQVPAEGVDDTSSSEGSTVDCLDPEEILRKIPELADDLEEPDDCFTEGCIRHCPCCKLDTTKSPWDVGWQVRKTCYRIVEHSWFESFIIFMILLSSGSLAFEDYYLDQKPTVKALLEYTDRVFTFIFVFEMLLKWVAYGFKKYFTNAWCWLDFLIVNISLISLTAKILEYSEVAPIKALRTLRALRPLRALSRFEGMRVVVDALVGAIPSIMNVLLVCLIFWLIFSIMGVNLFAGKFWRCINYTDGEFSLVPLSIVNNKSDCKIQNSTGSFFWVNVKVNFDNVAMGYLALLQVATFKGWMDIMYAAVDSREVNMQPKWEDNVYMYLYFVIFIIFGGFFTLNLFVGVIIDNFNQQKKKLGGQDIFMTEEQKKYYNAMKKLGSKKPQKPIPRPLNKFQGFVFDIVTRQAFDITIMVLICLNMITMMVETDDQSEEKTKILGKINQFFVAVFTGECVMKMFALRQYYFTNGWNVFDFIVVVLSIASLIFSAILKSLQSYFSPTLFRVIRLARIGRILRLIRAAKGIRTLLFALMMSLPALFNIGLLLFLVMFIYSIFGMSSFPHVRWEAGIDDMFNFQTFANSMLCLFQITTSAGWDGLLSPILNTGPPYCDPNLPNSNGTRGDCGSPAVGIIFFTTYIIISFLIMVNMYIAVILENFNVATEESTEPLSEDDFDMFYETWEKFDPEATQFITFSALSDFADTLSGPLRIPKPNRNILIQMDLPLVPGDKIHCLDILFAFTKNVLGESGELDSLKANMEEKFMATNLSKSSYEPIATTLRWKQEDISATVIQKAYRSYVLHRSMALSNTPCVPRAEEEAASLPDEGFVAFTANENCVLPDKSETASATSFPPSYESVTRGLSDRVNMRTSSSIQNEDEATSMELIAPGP

SMILES	IC50
C[C@H](O)CC(=O)N1CCN(c2nc(-c3ccccc3O)nc3ccccc23)CC1 [Example 109, (S)-3-Hydroxy-1-(4-(2-(2-hydroxyphenyl)quinazolin-4-yl)piperazin-1-yl)butan-1-one]	2 to 10 µM
Cc1ccc2c(N3CCN(C(=O)CCc4ccccn4)CC3)nc(-c3ccccc3O)nc2c1 [Example 133, 1-(4-(2-(2-Hydroxyphenyl)-7-methylquinazolin-4-yl)piperazin-1-yl)-3-(pyridin-2-yl)propan-1-one]	2 to 10 µM
CCCOC(=O)NC[C@@H]1CCN(c2nc(-c3ccccc3O)nc3ccc(F)cc23)C1 [Example 374, Propyl ((S)-1-(6-fluoro-2-(2-hydroxyphenyl)quinazolin-4-yl)pyrrolidin-3-yl)methylcarbamate]	> 10 µM
Cc1ccc2c(N3CCN(C(=O)[C@H](O)CC(C)(C)F)CC3)nc(-c3ccccc3O)nc2c1 [Example 125, (R)-4-Fluoro-2-hydroxy-1-{4-[2-(2-hydroxy-phenyl)-7-methyl-quinazolin-4-yl]-piperazin-1-yl}-4-methyl-pentan-1-one]	> 10 µM
Cc1ccc2c(N3CC[C@@H](NC(=O)OCC4CCCCO4)C3)nc(-c3ccccc3O)nc2c1 (stereo partly drawn) [Example 314, (Tetrahydro-2H-pyran-2-yl)methyl (R)-1-(2-(2-hydroxyphenyl)-7-methylquinazolin-4-yl)pyrrolidin-3-ylcarbamate]	2 to 10 µM
Cc1ccc2c(N3CCC[C@H](CNC(=O)OCC(C)C)C3)nc(-c3ccccc3O)nc2c1 [Example 253, Isobutyl ((R)-1-(2-(2-hydroxyphenyl)-7-methylquinazolin-4-yl)piperidin-3-yl)methylcarbamate]	> 10 µM
CC[C@H](O)C(=O)N1CCN(c2nc(-c3ccccc3O)nc3cc(C)ccc23)CC1 [Example 137, (S)-2-Hydroxy-1-(4-(2-(2-hydroxyphenyl)-7-methylquinazolin-4-yl)piperazin-1-yl)butan-1-one]	2 to 10 µM
CC(C)C[C@@H](O)C(=O)N1CCN(c2nc(-c3c(O)cccc3Cl)nc3ccccc23)CC1 [Example 146, (R)-1-(4-(2-(2-Chloro-6-hydroxyphenyl)quinazolin-4-yl)piperazin-1-yl)-2-hydroxy-4-methylpentan-1-one]	> 10 µM
Cc1ccc2c(N3CC(C(=O)NCc4cccnc4)C3)nc(-c3ccccc3O)nc2c1 [Example 402, 1-(2-(2-Hydroxyphenyl)-7-methylquinazolin-4-yl)-N-((pyridin-3-yl)methyl)azetidine-3-carboxamide]	> 10 µM
Cc1ccc2c(N3CCC[C@@H](CNC(=O)OCC(C)C)C3)nc(-c3c(O)cccc3F)nc2c1 [Example 260, Isobutyl ((S)-1-(2-(2-fluoro-6-hydroxyphenyl)-7-methylquinazolin-4-yl)piperidin-3-yl)methylcarbamate]	< 2 µM
Cc1ccc2c(N3CCN(C(=O)CCN4CCCCC4)CC3)nc(-c3ccccc3O)nc2c1 [Example 175, 1-(4-(2-(2-Hydroxyphenyl)-7-methylquinazolin-4-yl)piperazin-1-yl)-3-(piperidin-1-yl)propan-1-one]	> 10 µM

Now from value to compound:

IC50	SMILES
> 10 µM	Cc1ccc2c(N3CCN(C(=O)C(O)CC(F)(F)F)CC3)nc(-c3ccccc3O)nc2c1 (centres unmarked) [Example 112, 4,4,4-Trifluoro-2-hydroxy-1-(4-(2-(2-hydroxyphenyl)-7-methylquinazolin-4-yl)piperazin-1-yl)butan-1-one]
> 10 µM	Cc1ccc2c(N3CCC[C@H](NC(=O)[C@H]4CCCO4)C3)nc(-c3ccccc3O)nc2c1 [Example 205, (2R)-Tetrahydro-N—((S)-1-(2-(2-hydroxyphenyl)-7-methylquinazolin-4-yl)piperidin-3-yl)furan-2-carboxamide]
2 to 10 µM	Cc1ccc2c(N3CCN(C(=O)O[C@H]4COC5OCC[C@@H]54)CC3)nc(-c3ccccc3O)nc2c1 (some centres unmarked) [Example 190]
2 to 10 µM	Cc1ccc2c(N3CCN(C(=O)OCC4CCCO4)CC3)nc(-c3ccccc3O)nc2c1 (centres unmarked) [Example 185]
> 10 µM	CCCC(O)C(=O)NC1CCN(c2nc(-c3ccccc3O)nc3ccccc23)CC1 (centres unmarked) [Example 241, 2-Hydroxy-N-(1-(2-(2-hydroxyphenyl)quinazolin-4-yl)piperidin-4-yl)pentanamide]
> 10 µM	CC[C@H](O)C(=O)N1CCN(c2nc(-c3ccccc3O)nc3cc(C)ccc23)CC1 [Example 124, (S)-2-Hydroxy-1-(4-(2-(2-hydroxyphenyl)-7-methylquinazolin-4-yl)piperazin-1-yl)butan-1-one]
2 to 10 µM	Cc1ccc2c(N3CCC(NC(=O)[C@@H]4CCCO4)CC3)nc(-c3ccccc3O)nc2c1 [Example 277]
2 to 10 µM	Cc1ccc2c(N3CCN(C(=O)OCc4ccncc4)CC3)nc(-c3c(O)cccc3F)nc2c1 [Example 114, (Pyridin-4-yl)methyl 4-(2-(2-fluoro-6-hydroxyphenyl)-7-methylquinazolin-4-yl)piperazine-1-carboxylate]
> 10 µM	Cc1ccc2c(N3CCN(C(=O)[C@H](O)CC(C)C)[C@@H](CO)C3)nc(-c3ccccc3O)nc2c1 [Example 106, (R)-2-Hydroxy-1-((R)-2-(hydroxymethyl)-4-(2-(2-hydroxyphenyl)-7-methylquinazolin-4-yl)piperazin-1-yl)-4-methylpentan-1-one]
> 10 µM	Cc1ccc2c(N3CCN(C(=O)[C@H](O)CC(C)C)C[C@@H]3C(C)C)nc(-c3ccccc3O)nc2c1 [Example 155, (R)-2-Hydroxy-1-((S)-4-(2-(2-hydroxyphenyl)-7-methylquinazolin-4-yl)-3-isopropylpiperazin-1-yl)-4-methylpentan-1-one]
2 to 10 µM	Cc1ccc2c(N3CCC(NC(=O)[C@H]4CCCO4)C3)nc(-c3ccccc3O)nc2c1 (stereo in doubt) [Example 303, (2R)-Tetrahydro-N—((S)-1-(2-(2-hydroxyphenyl)-7-methylquinazolin-4-yl)pyrrolidin-3-yl)furan-2-carboxamide]
> 10 µM	Cc1ccc2c(N3CCC(NC(=O)CC4CCOCC4)CC3)nc(-c3ccccc3O)nc2c1 [Example 221, 2-(Tetrahydro-2H-pyran-4-yl)-N-(1-(2-(2-hydroxyphenyl)-7-methylquinazolin-4-yl)piperidin-4-yl)acetamide]
< 2 µM	Cc1ccc2c(N3CCN(C(=O)C(C)(C)C)CC3)nc(-c3ccccc3O)nc2c1 [Example 196]
2 to 10 µM	Cc1ccc2c(N3CCC(NC(=O)[C@H]4CCCO4)CC3)nc(-c3ccccc3O)nc2c1 [Example 276, (R)-Tetrahydro-furan-2-carboxylic acid {1-[2-(2-hydroxy-phenyl)-7-methyl-quinazolin-4-yl]-piperidin-4-yl}-amide]
2 to 10 µM	Cc1ccc2c(N3CCC(NC(=O)[C@H](O)CC(C)(C)C)CC3)nc(-c3ccccc3O)nc2c1 [Example 232, (2R)-2-Hydroxy-N-(1-(2-(2-hydroxyphenyl)-7-methylquinazolin-4-yl)piperidin-4-yl)-4,4-dimethylpentanamide]
